Data published in patent US10067145B2, “Method for removing genomically unstable IPS cells and synthetic peptide used therefor” (TOAGOSEI CO., LTD., priority 2013, dated 2018).
No end group written: not given here.

Columns and labels:
[1] = tested on: human iPS cell strain 201B7; assay: Evaluation of calreticulin expression inducing activity of synthetic peptides (immunofluorescence antibody assay), genomically stable iPS cells; assay type: cell-based; conditions: peptide 10 μM in mTeSR 1 medium, 5 days, medium replaced every day; anti-calreticulin antibody, confocal laser microscope
Excerpt: (§1) In the following Examples, iPS cells were used as an example of pluripotent stem cells. Specifically, cells used for tests were a genomically stable (specifically without a chromosome aberration) human iPS cell strain (clone: 201B7, hereinafter also merely referred to as 201B7) and a human iPS cell strain (clone: 201B2 hereinafter also merely referred to as 201B2) containing genomically unstable (specifically, chromosome 12 is triploid (trisomy)) cells. Both 201B7 and 201B2 are clones of iPS cells established from the same human fibroblasts (source: Takahashi K et al., Cell, 131, 861-872 (2007)). The iPS cells were provided by the Center for iPS Cell Research and Application, Kyoto University. […]
(§2) A primary antibody diluted solution prepared by adjusting a primary antibody, an anti-calreticulin monoclonal [FMC75] antibody (murine, available from Abeam, Cat No. ab22683, Lot No. GR56669-4), to a final concentration of 4×10^−3 mg/mL in 1% BSA/PBS (−) (PBS (−) containing 1% BSA) was added to the culture vessel of the iPS cells, and the mixture was left to stand overnight at 4° C. or 2 hours at room temperature. […] Thereafter, mounting was carried out with a DAPI (4′,6-diamidino-2-phenylindole)-containing mounting medium (available from Life Technologies) and a cover glass and fluorescence was observed under a confocal laser microscope. […]

[2] = tested on: human iPS cell strain 201B2 (chromosome 12 trisomy); assay: Evaluation of calreticulin expression inducing activity of synthetic peptides (immunofluorescence antibody assay), genomically unstable iPS cells; assay type: cell-based; conditions: peptide 10 μM in mTeSR 1 medium, 5 days, medium replaced every day; anti-calreticulin antibody, confocal laser microscope
Excerpt: as §1, §2

Question: Which results are given for “KKRTLRKNDRKKR GG CRAKAGDPC (KKRTLRKNDRKKRGGCRAKAGDPC-NH2; cysteine pairing not given here) [sample 1, linear synthetic calreticulin expression inducing peptide, 24 residues]”?
Answer: expression level of calreticulin in 201B7 (fluorescence of the label detecting calreticulin) compared to cells without addition of peptides [1]: almost no increase; expression level of calreticulin in 201B2 (fluorescence of the label detecting calreticulin) compared to cells without addition of peptides [2]: significantly increased
